What all share (type): in vivo, C57BL/6 mice
Assay [1] relates to IMQ-induced psoriasis-like mouse model. Kind of assay: Skin lesion score (erythema+scaling+thickening) in IMQ-induced psoriasis-like mouse model. To be noted: for severity of psoriasis-like skin lesions (cumulative score erythema+scaling+thickening): oral, 7 days. The procedure:
More specifically, hair on the backs of C57BL/6 mice was shaved off using an electric razor and then treated with a depilatory (Niclean, Ildong, Korea). For all other groups except a normal group, 62.5 mg of IMQ cream was applied daily to the shaved back area for 14 days.
On the other hand, the normal group as a negative control group was treated only with a vehicle cream (petrolatum).
The degree of (1) erythema, (2) scaling and (3) thickening was scored as 0 (none), 1 (mild), 2 (moderate) and 3 (severe). A cumulative dermatitis score (erythema+scaling+thickening) indicates the severity of psoriasis in back skin (scale: 0-9).
The clinical skin scores were calculated by summing the scores obtained on the basis of symptoms of erythema, scaling and thickening.

Assay [2] relates to IL-23. The assay is described as follows: Cytokine production assay (ELISA), IL-23 in blood serum and skin of IMQ-induced psoriasis-like mice. To be noted: blood serum samples and skin samples; glucosamine 300 mg/kg, cyclosporine A 10 and 20 mg/kg; co-administration vs each alone; alone vs control group (IMQ alone). The method, then: (§1) To measure cytokine levels in blood serum, mouse blood serum was collected 24 hours after the final administration and stored at −70° C. until analysis. To measure cytokine levels in the skin tissues, the back skin of mice was removed and stored at −80° C. Thereafter, the skin tissues were homogenized using a Bullet Blender™ Blue (Next Advance, Averill Park, N.Y.) at 4° C. to obtain supernatants, and the supernatants were stored at −30° C. IL-17A, IL-22, IL-23, and TNF-α concentrations in the blood serum and the skin tissues of mice were measured using the Mouse IL-17A Quantikine ELISA Kit (R&D Systems, Minneapolis, Minn., USA), IL-22, IL-23 and TNF-α ELISA kits (eBioscience, San Diego, Calif., USA). Meanwhile, ELISA was performed according to the manufacturer's instructions.

Assay [3] has as its system CD4+ CD25+ Treg cells. Kind of assay: Flow cytometry of regulatory T (Treg) cells from spleens of IMQ-induced psoriasis-like mice. The settings on record: spleen cells; glucosamine 300 mg/kg, cyclosporine A 20 mg/kg; co-administration vs each alone; alone vs control group (IMQ alone). The procedure: Single-cell suspensions prepared from spleens were stained with FITC-anti-CD4 (GK1.5) and PE-anti-CD25 (280406) (R&D Systems, Minneapolis, Minn., USA), and incubated in a PBS solution containing 2% FBS at 4° C. for 30 minutes under dark conditions. After incubation, the samples were washed twice and analyzed using CellQuest software (Becton Dickinson).

In assay [4] the test system is IL-17A. Kind of assay: Cytokine production assay (ELISA), IL-17A in blood serum and skin of IMQ-induced psoriasis-like mice. To be noted: blood serum samples and skin samples; glucosamine 300 mg/kg, cyclosporine A 10 and 20 mg/kg; co-administration vs each alone; alone vs control group (IMQ alone). The procedure: as §1
Assay [5] has as its system TNF-α. Kind of assay: Cytokine production assay (ELISA), TNF-α in blood serum and skin of IMQ-induced psoriasis-like mice. To be noted: blood serum samples and skin samples; glucosamine 300 mg/kg, cyclosporine A 10 and 20 mg/kg; co-administration vs each alone; alone vs control group (IMQ alone). The procedure: as §1
The test system of assay [6] is IL-22. Kind of assay: Cytokine production assay (ELISA), IL-22 in blood serum and skin of IMQ-induced psoriasis-like mice. To be noted: blood serum samples and skin samples; glucosamine 300 mg/kg, cyclosporine A 10 and 20 mg/kg; co-administration vs each alone; alone vs control group (IMQ alone). The method, then: as §1

For the compound `N[C@@H]1C(O)O[C@H](CO)[C@H](O)[C@@H]1O` (stereo in doubt) [glucosamine], the clinical skin scores result in assay [1] (glucosamine 300 mg/kg, cyclosporine A 10 and 20 mg/kg, oral once a day for a week, co-administration vs each alone, alone vs control group (IMQ alone)) is “no significant difference”. Also, the “severity of psoriasis-like skin lesions (cumulative score erythema+scaling+thickening)” value is recorded as “reduced” in assay [1] (high doses alone: glucosamine 400 mg/kg, cyclosporine A 40 mg/kg); “no significant effect” in assay [1] (low doses alone: glucosamine 100, 200 and 300 mg/kg, cyclosporine A 10 and 20 mg/kg). For the same compound, the IL-23 level result in assay [2] was “no significant difference”. Also, in assay [3], the “number of CD4+ CD25+ Treg cells” value is “no significant difference”. Further, in assay [4], the IL-17A level result is “no significant difference”. The “level of TNF-α” value in assay [5] is recorded as “no significant difference”. Moreover, in assay [6], the IL-22 level result was “no significant difference”.

These data come from patent US20170360882A1, “COMPOSITION FOR PREVENTING, IMPROVING OR TREATING PSORIASIS COMPRISING IMMUNOMODULATOR AND GLUCOSAMINE” (DONGGUK UNIVERSITY INDUSTRY-ACADEMY COOPERATION FOUNDATION, priority 2014, published 2017).
